In ChEMBL document CHEMBL4270527, “Discovery of phenylsulfonylfuroxan derivatives as gamma globin inducers by histone acetylation” (Eur J Med Chem, 2018):
Activity calls are given as the source filed them. The calls are words filed in the database; no cut-off is given here.

Experiments:
Mus musculus = experiment: Antinociceptive activity in Swiss albino mouse assessed as decrease in number of acetic acid-induced abdominal constriction at 100 umol/kg, po pretreated for 1 hr followed by acetic-acid challenge for 10 mins measured for 20 mins relative to control; format: functional; design: scale not given: the % may be the effect or the level left
Platelet = experiment: Antiplatelet activity in Wistar rat platelet rich plasma assessed as inhibition of ADP-induced platelet aggregation at 100 uM pretreated for 1 min followed by ADP addition by turbidimetric method relative to control; format: functional
Macrophage [1] = experiment: Cytotoxicity against LPS-induced Swiss albino mouse macrophages assessed as cell viability at 6.2 to 50 uM after 24 hrs by MTT assay relative to control; format: functional
Macrophage [2] = experiment: Inhibition of LPS-induced TNFalpha production in Swiss albino mouse macrophages at 6.2 uM after 24 hrs by ELISA relative to control; format: functional
Macrophage [3] = experiment: Inhibition of LPS-induced TNFalpha production in Swiss albino mouse macrophages at 12.5 uM after 24 hrs by ELISA relative to control; format: functional
Macrophage [4] = experiment: Inhibition of LPS-induced TNFalpha production in Swiss albino mouse macrophages at 25 uM after 24 hrs by ELISA relative to control; format: functional
[5] = biological target: MAP kinase p38 (Homo sapiens) (UniProt O15264+Q15759+Q16539+P53778); experiment: Activation of p38 MAPK phosphorylation in human K562 cells at 6.7 to 100 uM by Western blot analysis; format: cell-based
K562 [6] = experiment: Activation of histone H3/H4 acetylation in human K562 cells assessed as increase in […] expression at 6.7 to 12.5 uM after 48 hrs by Western blot analysis; format: cell-based
K562 [7] = experiment: Activation of histone H3/H4 acetylation in human K562 cells assessed as induction of […] production at 100 uM after 96 hrs by Western blot analysis; format: cell-based
K562 [8] = experiment: Activation of histone H3 acetylation in human K562 cells at 100 uM after 24 hrs by Western blot analysis; format: cell-based
[9] = biological target: Histone H4 (Homo sapiens) (UniProt P62805); experiment: Activation of histone H4 acetylation in human K562 cells at 6.7 to 100 uM after 24 hrs by Western blot analysis; format: cell-based
CHO-K1 [10] = experiment: Mutagenicity in CHOK1 cells assessed as nuclear division index at 0.3 ug/ml after 24 hrs by Giemsa staining based microscopic analysis (reference value: 1.701 +/- 0.002); format: toxicity, cell-based, Cricetulus griseus; conditions: chinese hamster, cho-k1, 24 h
Macrophage [11] = experiment: Inhibition of LPS-induced TNFalpha production in Swiss albino mouse macrophages at 50 uM after 24 hrs by ELISA relative to control; format: functional
CHO-K1 [12] = experiment: Mutagenicity in CHOK1 cells assessed as nuclear division index at 25 uM after 24 hrs by Giemsa staining based microscopic analysis (reference value: 1.701 +/- 0.002); format: toxicity, cell-based, Cricetulus griseus; conditions: chinese hamster, cho-k1, 24 h
CHO-K1 [13] = experiment: Genotoxicity in CHOK1 cells assessed as increase in commet tail at 100 uM after 24 hrs by commet assay; format: toxicity, cell-based, Cricetulus griseus; conditions: chinese hamster, cho-k1, 24 h
CHO-K1 [14] = experiment: Mutagenicity in CHOK1 cells assessed as nuclear division index at 50 uM after 24 hrs by Giemsa staining based microscopic analysis (reference value: 1.701 +/- 0.002); format: toxicity, cell-based, Cricetulus griseus; conditions: chinese hamster, cho-k1, 24 h
CHO-K1 [15] = experiment: Mutagenicity in CHOK1 cells assessed as frequency of micronucleus binucleated cells at 25 to 100 uM after 24 hrs by Giemsa staining based microscopic analysis; format: toxicity, cell-based, Cricetulus griseus; conditions: chinese hamster, cho-k1, 24 h
CHO-K1 [16] = experiment: Mutagenicity in CHOK1 cells assessed as nuclear division index at 100 uM after 24 hrs by Giemsa staining based microscopic analysis (reference value: 1.701 +/- 0.002); format: toxicity, cell-based, Cricetulus griseus; conditions: chinese hamster, cho-k1, 24 h
CHO-K1 [17] = experiment: Genotoxicity in CHOK1 cells assessed as increase in tail moment at 25 to 100 uM after 24 hrs by commet assay; format: toxicity, cell-based, Cricetulus griseus; conditions: chinese hamster, cho-k1, 24 h
[18] = Stability of the compound in pH 7.4 phosphate buffered saline assessed as compound hydrolysis after 4 hrs by UV-HPLC analysis; format: physicochemical; conditions: read-out: Drug degradation
K562 [19] = experiment: Activation of histone H3/H4 acetylation in human K562 cells assessed as increase in […] expression at 25 to 100 uM after 96 hrs by Western blot analysis; format: cell-based
K562 [20] = experiment: Activation of histone H3 acetylation in human K562 cells at 6.7 to 100 uM after 24 hrs by Western blot analysis; format: cell-based
CHO-K1 [21] = experiment: Cytotoxicity against CHOK1 cells assessed as reduction in cell viability at 100 uM after 24 hrs by XTT assay relative to control; format: cell-based, Cricetulus griseus; conditions: chinese hamster, cho-k1, 24 h
CHO-K1 [22] = experiment: Cytotoxicity against CHOK1 cells assessed as reduction in cell viability at 50 uM after 24 hrs by XTT assay relative to control; format: cell-based, Cricetulus griseus; conditions: chinese hamster, cho-k1, 24 h
CHO-K1 [23] = experiment: Cytotoxicity against CHOK1 cells assessed as reduction in cell viability at 25 uM after 24 hrs by XTT assay relative to control; format: cell-based, Cricetulus griseus; conditions: chinese hamster, cho-k1, 24 h
CHO-K1 [24] = experiment: Mutagenicity in CHOK1 cells assessed as frequency of micronucleus at 25 to 100 uM after 24 hrs by Giemsa staining based microscopic analysis; format: toxicity, cell-based, Cricetulus griseus; conditions: chinese hamster, cho-k1, 24 h

SMILES: Cc1c(N(C)CS(=O)(=O)[O-])c(=O)n(-c2ccccc2)n1C.[Na+] [DIPYRONE SODIUM]
- Activity (Mus musculus): 35%

SMILES: O=C(N/N=C/c1cccc(Oc2no[n+]([O-])c2S(=O)(=O)c2ccccc2)c1)c1ccc(N2C(=O)c3ccccc3C2=O)cc1
- inhibition at 100 µM (Platelet): 84%
- Activity (Mus musculus): 42%
- Activity (Macrophage [1]): >75%
- inhibition at 6.2 µM (Macrophage [2]): 61%
- inhibition at 12.5 µM (Macrophage [3]): 64.9%
- inhibition at 25 µM (Macrophage [4]): 73.6%
- Activity [5]: inactive
- Activity (K562 [6]): Active
- Activity (K562 [7]): Active
- Activity (K562 [8]): Active
- Activity [9]: Active

SMILES: O=C(N/N=C/c1c(-c2ccccc2)no[n+]1[O-])c1ccccc1N1C(=O)c2ccccc2C1=O
- inhibition at 100 µM (Platelet): 17.2%
- Activity (Mus musculus): 36.2%

SMILES: COc1cccc2c1C(=O)c1c(O)c3c(c(O)c1C2=O)C[C@@](O)(C(=O)CO)C[C@@H]3O[C@H]1C[C@H](N)[C@H](O)[C@H](C)O1 [DOXORUBICIN]
- Activity_index (CHO-K1 [10]): 1.683

SMILES: O=C1CCC(N2C(=O)c3ccccc3C2=O)C(=O)N1 (configuration not stated) [THALIDOMIDE]
- inhibition at 50 µM (Macrophage [11]): 31.7%

SMILES: O=C(N/N=C/c1ccc2no[n+]([O-])c2c1)c1ccccc1N1C(=O)c2ccccc2C1=O
- inhibition at 100 µM (Platelet): 0%
- Activity (Mus musculus): 30.5%

SMILES: O=C(N/N=C/c1c(-c2ccccc2)no[n+]1[O-])c1ccc(N2C(=O)c3ccccc3C2=O)cc1
- inhibition at 100 µM (Platelet): 26.5%
- Activity (Mus musculus): 44.8%
- Activity (Macrophage [1]): >75%

SMILES: CC(=O)Oc1ccccc1C(=O)O [ASPIRIN]
- inhibition at 100 µM (Platelet): 5%

SMILES: O=C(N/N=C/c1ccc(Oc2no[n+]([O-])c2S(=O)(=O)c2ccccc2)cc1)c1ccc(N2C(=O)c3ccccc3C2=O)cc1
- Activity_index (CHO-K1 [12]): 1.691
- Activity (CHO-K1 [13]): Non-Toxic
- Activity_index (CHO-K1 [14]): 1.69
- Activity (CHO-K1 [15]): Non-Toxic
- Activity_index (CHO-K1 [16]): 1.697
- Activity (CHO-K1 [17]): Non-Toxic
- degraded at 4 h [18]: 30%
- inhibition at 100 µM (Platelet): 76.1%
- Activity (Mus musculus): 50.1%
- Activity (Macrophage [1]): >75%
- inhibition at 6.2 µM (Macrophage [2]): 41%
- inhibition at 12.5 µM (Macrophage [3]): 54.2%
- inhibition at 25 µM (Macrophage [4]): 76.5%
- Activity [5]: inactive
- Activity (K562 [19]): Active
- Activity [9]: inactive
- Activity (K562 [20]): Active
- Activity (CHO-K1 [21]): <= 30%
- Activity (CHO-K1 [22]): 14%
- Activity (CHO-K1 [23]): 4%
- Activity (CHO-K1 [24]): Non-Toxic

SMILES: O=C(N/N=C/c1ccc2no[n+]([O-])c2c1)c1ccc(N2C(=O)c3ccccc3C2=O)cc1
- inhibition at 100 µM (Platelet): 2.8%
- Activity (Mus musculus): 48.3%
- Activity (Macrophage [1]): >75%
- inhibition at 12.5 µM (Macrophage [3]): 99.9%
- inhibition at 25 µM (Macrophage [4]): 99.5%
- inhibition at 50 µM (Macrophage [11]): 54.5%

SMILES: O=C(N/N=C/c1ccc2no[n+]([O-])c2c1)c1cccc(N2C(=O)c3ccccc3C2=O)c1
- inhibition at 100 µM (Platelet): 1.2%
- Activity (Mus musculus): 40.5%
- Activity (Macrophage [1]): >75%
